# Measurements as given in patent publication US20150315218A1, “SALTS OF PRODRUGS OF PIPERAZINE AND SUBSTITUTED PIPERIDINE ANTIVIRAL AGENTS” (Bristol-Myers Squibb Company, priority 2004, published 2015).
# Read-outs that look alike come from different tables or passages of the source.
# What was measured:
# [1] = Stability (hydrolysis) of prodrug in fresh serum (human); conditions: Human Serum
# [2] = Effect of food on oral absorption of IVa in dogs after Iab or IVa capsules; assay type: in vivo, dog; conditions: for AUC / Cmax / Tmax / half-life: dog, po, 20 mg/kg
# Protocol: To study the effect of food on the oral absorption of IVa after administration of Iab and IVa, these two compounds were administered in capsules as solid to a group of three dogs in a cross-over fashion under overnight fasting and fed conditions. There was a one-week washout period between each study. Iab was administered at 200 mg per dog (ca 20 mg/kg) of IVa equivalent; IVa was administered in a clinical capsule formulation at 200 mg per dog (ca 20 mg/kg). In the studies where the dogs were fed, the following meal was prepared: 2 slices of bacon, 2 eggs, 2 pieces of toast with butter and jelly, 4 oz. hash browns and 8 oz. of whole milk. After homogenization using a laboratory blender, the meal was equally divided into five portions and kept frozen. Before the study, the meals were thawed and each dog was fed one portion.
# [3] = Cytotoxicity assay (XTT dye reduction) in MT-2 cells; assay type: cell-based; conditions: human, six days
# Protocol: Cytotoxicity assays were conducted with the same MT-2 cells, using methodology well known in the art. […] 50 μl of XTT reagent (1 mg/ml 2,3-bis[2-methoxy-4-nitro-5-sulfophenyl]-2H-tetrazolium-5-carboxanilide, 10 μg/ml phenazine methosulfate dissolved in phosphate buffered saline) was added to each well and incubated for 3 hours. Color formation by actively respiring cells was quantitated in a plate reader at 450 nm, and used to determine a CC50.
# [4] = IV and oral rat PK (MAP) studies A, B, C of phosphate prodrugs and parent studies A1, B1, C1; assay type: in vivo, Sprague-Dawley rats; conditions: rats; for concentration at 24 h: oral, read-out: Cp @ 24 hr p.o.; for AUC(0-t): AUC 0-24 h (μM * hr)
# Protocol: The rats for oral dosing studies were fasted overnight. […] The dosing solutions of all three prodrugs for both IV and oral administration were prepared in 100% normal saline at 1 mg/mL (dosing solution concentrations were parent compound equivalent). Plasma samples were collected in EDTA vacutainers over 24 hrs, and analyzed by LC/MS/MS for both the prodrugs and parent molecules. Pharmacokinetic analysis was performed on Kinetica™.
# Plasma and tissue samples were collected and stored at −20° C. until analysis. […] Rats were fasted overnight in PO studies. […] In the PO studies, rats (n=3) received PO doses of 5 and 100 mg/kg.
# Male Sprague-Dawley rats (300-350 g, Hilltop Lab Animals, Inc., Scottdale, Pa.) with cannulas implanted in the jugular vein and/or bile duct were used. The rats were fasted overnight in the PO pharmacokinetic studies. Blood samples of 0.3 ml were collected from the jugular vein in EDTA-containing microtainer tubes (Becton Dickinson, Franklin Lakes, N.J.), and centrifuged to separate plasma.
# [5] = Stability of prodrug in fresh EDTA blood (monkey); conditions: Monkey EDTA blood
# Protocol: (§1) The stability of Iab was studied in fresh blood and serum from rat, dog, monkey and human (n=2). The blood was collected in vacutainers containing K2EDTA (Becton Dickinson, Franklin Lakes, N.J.). The serum was collected in vacutainers containing no anticoagulant. Iab was incubated at a starting concentration of approximately 10 μM for 60-90 min at 37° C. Serial samples were taken at the pre-determined times. Aliquots of blood samples (200 μL) were first mixed with 100 μL of water followed by 400 μL of acetonitrile. The serum samples (50 μL) were added into microtainers containing K2EDTA (Becton Dickinson, Franklin Lakes, N.J.) followed by the addition of 100 μL of acetonitrile. The supernatant was analyzed for both Iab and IVa by LC/MS/MS. The stability of Ibb was studied in fresh blood and serum from rat, dog, monkey and human (n=2). The blood was collected in vacutainers containing K2EDTA (Becton Dickinson, Franklin Lakes, N.J.). The serum was collected in vacutainers containing no anticoagulant. Ibb was incubated at a starting concentration of approximately 15 μM for 90 min at 37° C. Serial samples were taken at the pre-determined times. Aliquots of blood samples (200 μL) were first mixed with 100 μL of water followed by 400 μL of acetonitrile. The serum samples (50 μL) were added into microtainers containing K2EDTA (Becton Dickinson, Franklin Lakes, N.J.) followed by the addition of 100 μL of acetonitrile. […] The stability of Icb was studied in fresh blood and serum from rat, dog, monkey and human (n=2). The blood was collected in vacutainers containing K2EDTA (Becton Dickinson, Franklin Lakes, N.J.). The serum was collected in vacutainers containing no anticoagulant. Icb was incubated at a starting concentration of approximately 10 μM for 90 min at 37° C. Serial samples were taken at the pre-determined times. Aliquots of blood samples (200 μL) were first mixed with 100 μL of water followed by 400 μL of acetonitrile. The serum samples (50 μL) were added into microtainers containing K2EDTA (Becton Dickinson, Franklin Lakes, N.J.) followed by the addition of 100 μL of acetonitrile.
# [6] = Stability of prodrug in fresh EDTA blood (rat); conditions: Rat EDTA blood
# Protocol: as §1
# [7] = Stability of prodrug in fresh EDTA blood (dog)
# [8] = Stability (hydrolysis) of prodrug in fresh serum (monkey); conditions: Monkey Serum
# [9] = in vivo, dogs, IVa Clinical Form Capsules, Fasting
# [10] = in vivo, dogs, IVa Clinical Form Capsules, Fed
# [11] = plasma, IVa after Iab dry-filled capsules, Fasting
# [12] = plasma, IVa after Iab dry-filled capsules, Fed
# [13] = dogs, IVa Clinical Form Capsules (20 mg/kg)
# [14] = male, Sprague-Dawley, rat, plasma, po, 5 mg/kg, after PO prodrug dosing equivalent to 5 mpk of parent, analyte = label
# [15] = male, Sprague-Dawley, rat, plasma, po, 5 mg/kg, historic, after PO dosing of parent 5 mpk
# [16] = parent AUC after prodrug dosing vs after parent dosing
compound,measurement,setting,value
"COc1ncc(OC)c2c(C(=O)C(=O)N3CCN(C(=O)c4ccccc4)CC3)c[nH]c12 [IVa, N-(benzoyl)-N′-[(4,7-dimethoxy-6-azaindol-3-yl)-oxoacetyl]piperazine]",Iab / IVa Formed,"[1]; 37°C, 0 min",0.10 µM
same,Iab / IVa Formed,[1]; 15 min,0.10 µM
same,Iab / IVa Formed,[1]; 30 min,0.15 µM
same,Iab / IVa Formed,[1]; 45 min,0.20 µM
same,Iab / IVa Formed,[1]; 60 min,0.24 µM
same,Iab / IVa Formed,[1]; 90 min,0.32 µM
same,AUC,"[2]; in vivo, dogs, IVa Clinical Form Capsules (20 mg/kg), Fed",96 ± 10 µM·h
same,Cmax,[2]; [9],1200 ± 220 nM
same,Tmax,[2]; [9],3.3 ± 1.2 h
same,Cmax,[2]; [10],11000 ± 990 nM
same,Tmax,[2]; [10],4 h
same,Cmax,[2]; [11],70000 ± 12000 nM
same,Tmax,[2]; [11],2 h
same,half-life,[2]; [11],4.2 ± 0.42 h
same,Cmax,[2]; [12],130000 ± 102000 nM
same,Tmax,[2]; [12],1.5 ± 0.87 h
same,half-life,[2]; [12],3.2 ± 1 h
same,AUC,"[2]; plasma, IVa in dogs after Iab dry-filled capsules (20 mg/kg of IVa equivalent), Fasting, n = 3",414 ± 70 µM·h
same,AUC,"[2]; plasma, IVa in dogs after Iab dry-filled capsules (20 mg/kg of IVa equivalent), Fed",422 ± 57 µM·h
same,AUC,"[2]; plasma, dogs, IVa Clinical Form Capsules (20 mg/kg), Fasting, n = 3",11 ± 1.4 µM·h
same,half-life,"[2]; plasma, dogs, IVa Clinical Form Capsules, Fasting",5.3 ± 2.7 h
same,half-life,"[2]; plasma, dogs, IVa Clinical Form Capsules, Fed",8 ± 3.1 h
same,improvement in AUC and Cmax (exposure) in fed vs fasted dogs,"[2]; dogs receiving IVa clinical capsule, high fat meal",9 fold
same,AUCtot Fed/Fasting Ratio,[2]; [13],9.0 ± 2.2
same,Cmax Fed/Fasting Ratio,[2]; [13],9.1 ± 0.92
same,CC50 at 6 days,[3],> 10 µM
same,Vd,"[4]; male, Sprague-Dawley, rat, plasma, 1 mg/kg, historic, parent IV 1 mpk, read-out: Vss i.v.",1.4 ± 0.4 L/kg
same,half-life,"[4]; male, Sprague-Dawley, rat, plasma, iv, 1 mg/kg, after IV prodrug dosing equivalent to 1 mpk of parent, analyte = label, read-out: T1/2 i.v. (converted)",2.8 ± 1.5 h
same,half-life,"[4]; male, Sprague-Dawley, rat, plasma, iv, 1 mg/kg, historic, parent IV 1 mpk, read-out: T1/2 i.v. (converted)",4 ± 2.6 h
same,concentration at 24 h,"[4]; male, Sprague-Dawley, rat, plasma, 5 mg/kg, after PO prodrug dosing equivalent to 5 mpk of parent, analyte = label",35.2 nM
same,concentration at 24 h,"[4]; male, Sprague-Dawley, rat, plasma, 5 mg/kg, historic, after PO dosing of parent 5 mpk",9.2 nM
same,AUC(0-t),[4]; [14],5.9 ± 1 µM·h
same,AUC(0-t),[4]; [15],14.9 ± 6.2 µM·h
same,Tmax,"[4]; male, Sprague-Dawley, rat, plasma, po, 5 mg/kg, after PO prodrug dosing equivalent to 5 mpk of parent",1.7 h
same,Cmax,[4]; [14],1400 ± 600 nM
same,half-life,"[4]; male, Sprague-Dawley, rat, plasma, po, 5 mg/kg, after PO prodrug dosing equivalent to 5 mpk of parent, read-out: T1/2 p.o. (converted)",3.3 ± 2.2 h
same,Cmax,[4]; [15],4500 ± 1500 nM
same,Tmax,[4]; [15],2 h
same,half-life,"[4]; male, Sprague-Dawley, rat, plasma, po, 5 mg/kg, historic, after PO dosing of parent 5 mpk, read-out: T1/2 p.o. (converted)",1.9 ± 0.8 h
same,CL i.v.,"[4]; historic, parent IV 1 mpk",13 ± 4.6 mL/min/kg
same,AUC0 tot ratio after IV administration*,[4]; [16],0.534
same,AUCtot ratio after PO administration**,[4]; [16],0.39
same,% IVa Formed (of starting concentration of Iab),[5]; 0 min,0.13%
same,Iab / IVa Formed,[5]; 0 min,0.011 µM
same,% IVa Formed (of starting concentration of Iab),[5]; 20 min,0.28%
same,Iab / IVa Formed,[5]; 20 min,0.024 µM
same,% IVa Formed (of starting concentration of Iab),[5]; 40 min,0.48%
same,Iab / IVa Formed,[5]; 40 min,0.041 µM
same,% IVa Formed (of starting concentration of Iab),[5]; 60 min,0.56%
same,Iab / IVa Formed,[5]; 60 min,0.048 µM
same,% IVa Formed (of starting concentration of Iab),[6]; 0 min,0.24%
same,Iab / IVa Formed,"[6]; 37°C, 0 min",0.019 µM
same,% IVa Formed (of starting concentration of Iab),[6]; 20 min,0.70%
same,Iab / IVa Formed,[6]; 20 min,0.056 µM
same,% IVa Formed (of starting concentration of Iab),[6]; 40 min,0.90%
same,Iab / IVa Formed,[6]; 40 min,0.072 µM
same,% IVa Formed (of starting concentration of Iab),[6]; 60 min,1.2%
same,Iab / IVa Formed,[6]; 60 min,0.093 µM
same,% IVa Formed (of starting concentration of Iab),"[7]; Dog A EDTA blood (Table 15), 0 min",0.30%
same,% IVa Formed (of starting concentration of Iab),"[7]; Dog A EDTA blood (Table 15), 20 min",2.4%
same,% IVa Formed (of starting concentration of Iab),"[7]; Dog A EDTA blood (Table 15), 40 min",4.1%
same,% IVa Formed (of starting concentration of Iab),"[7]; Dog A EDTA blood (Table 15), 60 min",6.2%
same,% IVa Formed (of starting concentration of Iab),"[7]; Dog A EDTA blood (repeat), 0 min",0.63%
same,% IVa Formed (of starting concentration of Iab),"[7]; Dog A EDTA blood (repeat), 15 min",2.3%
same,% IVa Formed (of starting concentration of Iab),"[7]; Dog A EDTA blood (repeat), 30 min",3.4%
same,% IVa Formed (of starting concentration of Iab),"[7]; Dog A EDTA blood (repeat), 45 min",4.8%
same,% IVa Formed (of starting concentration of Iab),"[7]; Dog A EDTA blood (repeat), 60 min",6.1%
same,% IVa Formed (of starting concentration of Iab),"[7]; Dog B EDTA blood, 0 min",0.68%
same,% IVa Formed (of starting concentration of Iab),"[7]; Dog B EDTA blood, 15 min",2.0%
same,% IVa Formed (of starting concentration of Iab),"[7]; Dog B EDTA blood, 30 min",3.5%
same,% IVa Formed (of starting concentration of Iab),"[7]; Dog B EDTA blood, 45 min",4.5%
same,% IVa Formed (of starting concentration of Iab),"[7]; Dog B EDTA blood, 60 min",5.8%
same,Iab / IVa Formed,"[8]; 37°C, 0 min",0.20 µM
same,Iab / IVa Formed,[8]; 15 min,0.48 µM
same,Iab / IVa Formed,[8]; 30 min,0.75 µM
same,Iab / IVa Formed,[8]; 45 min,1.2 µM
same,Iab / IVa Formed,[8]; 60 min,1.5 µM
same,Iab / IVa Formed,[8]; 90 min,2.0 µM
